{"source": "patent US10308644B2", "about": "“Heterocyclic compounds as immunomodulators” (Incyte Corporation, priority 2016, dated 2019)"}
{"biological_target": "PD-1/PD-L1 (Homo sapiens (Human), UniProt Q9NZQ7)", "sequence (Q9NZQ7 19-238)": "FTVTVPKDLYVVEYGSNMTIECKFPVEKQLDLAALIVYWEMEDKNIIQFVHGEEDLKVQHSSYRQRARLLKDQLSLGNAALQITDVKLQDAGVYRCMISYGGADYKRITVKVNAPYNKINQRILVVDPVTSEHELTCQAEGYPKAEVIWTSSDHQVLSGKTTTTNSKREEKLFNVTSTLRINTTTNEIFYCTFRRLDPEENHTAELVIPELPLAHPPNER", "assay": "PD-1/PD-L1 Homogeneous Time-Resolved Fluorescence (HTRF) Binding Assay", "settings": "recombinant human PD-1 (3 nM) and PD-L1 (10 nM), 25° C., PBS pH 7.4", "how_it_was_run": "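Fc-tagged human PD-1 (25-167, 3 nM) and His-tagged PD-L1 (19-238, 10 nM) preincubated with inhibitor 40 min in PBS pH 7.4, 0.05% Tween-20, 0.1% BSA, 1% DMSO, 25 °C. Binding detected by HTRF (Eu anti-IgG/APC anti-His, 665/620 nm) after 60 min; IC50 from percent control activity.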", "units": {"IC50": "nM"}}
{"compound": "Cc1c(Nc2nccc3cc(CN4CC[C@@H](O)C4)cnc23)cccc1-c1cccc(-c2nc3cc(CN4CC[C@@](C)(C(=O)O)C4)cc(C#N)c3o2)c1C", "note": "[Example 100, (R)-1-((7-cyano-2-(3′-(3-(((R)-3-hydroxypyrrolidin-1-yl)methyl)-1,7-naphthyridin-8-ylamino)-2,2′-dimethylbiphenyl-3-yl)benzo[d]oxazol-5-yl)methyl)-3-methylpyrrolidine-3-carboxylic acid]", "IC50": "≤ 10"}
{"compound": "Cc1c(Nc2nccc3cc(CN4CCCC4)cnc23)cccc1-c1cccc(-c2nc3cc(CN4CC[C@@](C)(C(=O)O)C4)cc(C#N)c3o2)c1C", "note": "[Example 193, (R)-1-((7-cyano-2-(2,2′-dimethyl-3′-(3-(pyrrolidin-1-ylmethyl)-1,7-naphthyridin-8-ylamino)biphenyl-3-yl)benzo[d]oxazol-5-yl)methyl)-3-methylpyrrolidine-3-carboxylic acid]", "IC50": "≤ 10"}
{"compound": "CCN(C)CC(=O)N1Cc2nc(-c3cccc(-c4cccc(-c5nc6cc(CN7CC8(C(=O)O)CC7C8)cc(C#N)c6o5)c4C)c3C)oc2C1", "note": "[Example 242, 2-((7-cyano-2-(3′-(5-(N-ethyl-N-methylglycyl)-5,6-dihydro-4H-pyrrolo[3,4-d]oxazol-2-yl)-2,2′-dimethyl-[1,1′-biphenyl]-3-yl)benzo[d]oxazol-5-yl)methyl)-2-azabicyclo[2.1.1]hexane-4-carboxylic acid]", "IC50": "≤ 10"}
{"compound": "CCN1CCc2c(nc(C(=O)Nc3cccc(-c4cccc(-c5nc6cc(CN7CC[C@H](C(=O)O)C7)cc(C#N)c6o5)c4C)c3C)n2C)C1", "note": "[Example 37, (S)-1-((7-cyano-2-(3′-(5-ethyl-1-methyl-4,5,6,7-tetrahydro-1H-imidazo[4,5-c]pyridine-2-carboxamido)-2,2′-dimethylbiphenyl-3-yl)benzo[d]oxazol-5-yl)methyl)pyrrolidine-3-carboxylic acid]", "IC50": "≤ 10"}
{"compound": "Cc1c(NC(=O)c2nc3c(n2C)CCN(C)C3)cccc1-c1cccc(-c2nc3cc(CN(C)CCC(=O)O)cc(Cl)c3o2)c1C", "note": "[Example 42, 3-(((7-chloro-2-(3′-(1,5-dimethyl-4,5,6,7-tetrahydro-1H-imidazo[4,5-c]pyridine-2-carboxamido)-2,2′-dimethylbiphenyl-3-yl)benzo[d]oxazol-5-yl)methyl)(methyl)amino) propanoic acid]", "IC50": "≤ 10"}
{"compound": "Cc1c(Nc2nccc3cc(CNC[C@@H](C)O)cnc23)cccc1-c1cccc(-c2nc3cc(CN4CC[C@@](C)(C(=O)O)C4)cc(C#N)c3o2)c1C", "note": "[Example 192, (R)-1-((7-cyano-2-(3′-(3-(((R)-2-hydroxypropylamino)methyl)-1,7-naphtyridin-8-ylamino)-2,2′-dimethylbiphenyl-3-yl)benzo[d]oxazol-5-yl)methyl)-3-methylpyrrolidine-3-carboxylic acid]", "IC50": "≤ 10"}
{"compound": "Cc1c(-c2nc3cc(CN4CC5(CC(C(=O)O)C5)C4)cc(C#N)c3o2)cccc1-c1cccc(-c2nc3c(s2)CN(C(=O)CN(C)CCO)C3)c1C", "note": "[Example 230, 2-((7-cyano-2-(3′-(5-(2-((2-hydroxyethyl)(methyl)amino)acetyl)-5,6-dihydro-4H-pyrrolo[3,4-d]thiazol-2-yl)-2,2′-dimethylbiphenyl-3-yl)benzo[d]oxazol-5-yl)methyl)-2-azaspiro[3.3]heptane-6-carboxylic acid]", "IC50": "≤ 10"}
{"compound": "Cc1c(-c2nc3cc(CN4CC[C@@H](C(=O)O)C4)cc(Cl)c3o2)cccc1-c1cccc(Nc2nccc3cc(CN4CC[C@@H](O)C4)cnc23)c1Cl", "note": "[Example 82, (R)-1-((7-chloro-2-(2′-chloro-3′-(3-(((R)-3-hydroxypyrrolidin-1-yl)methyl)-1,7-naphthyridin-8-ylamino)-2-methylbiphenyl-3-yl)benzo[d]oxazol-5-yl)methyl)pyrrolidine-3-carboxylic acid]", "IC50": "≤ 10"}
{"compound": "Cc1c(Nc2nccc3cc(CNCC(C)(C)O)cnc23)cccc1-c1cccc(-c2nc3cc(CN4CCCC[C@H]4C(=O)O)cc(Cl)c3o2)c1C", "note": "[Example 4, (S)-1-((7-chloro-2-(3′-((3-(((2-hydroxy-2-methylpropyl)amino)methyl)-1,7-naphthyridin-8-yl)amino)-2,2′-dimethyl-[1,1′-biphenyl]-3-yl)benzo[d]oxazol-5-yl)methyl)piperidine-2-carboxylic acid]", "IC50": "≤ 10"}
{"compound": "Cc1c(-c2nc3cc(CN4CC[C@@H](O)C4)cc(C#N)c3o2)cccc1-c1cccc(NC(=O)c2nc3c(n2C)CCN(C[C@H]2CC[C@@H](C(=O)O)CC2)C3)c1Cl", "note": "[Example 266, cis-4-((2-(2-chloro-3′-(7-cyano-5-(((R)-3-hydroxypyrrolidin-1-yl)methyl)benzo[d]oxazol-2-yl)-2′-methylbiphenyl-3-ylcarbamoyl)-1-methyl-6,7-dihydro-1H-imidazo[4,5-c]pyridin-5(4H)-yl)methyl)cyclohexane carboxylic acid]", "IC50": "≤ 10"}
{"compound": "Cc1c(-c2nc3cc(CN4CC[C@H](C(=O)O)C4)cc(Cl)c3o2)cccc1-c1cccc(Nc2nccc3cc(CN4CC[C@@H](O)C4)cnc23)c1Cl", "note": "[Example 81, (S)-1-((7-chloro-2-(2′-chloro-3′-(3-(((R)-3-hydroxypyrrolidin-1-yl)methyl)-1,7-naphthyridin-8-ylamino)-2-methylbiphenyl-3-yl)benzo[d]oxazol-5-yl)methyl)pyrrolidine-3-carboxylic acid]", "IC50": "≤ 10"}
{"compound": "Cc1c(-c2nc3cc(CN4CC[C@@](C)(C(=O)O)C4)cc(C#N)c3o2)cccc1-c1cccc(NC(=O)c2nc3c(n2C)CC(C)NC3)c1Cl", "note": "(stereo partly drawn) [Example 163, (3R)-1-((2-(2′-chloro-3′-(1,6-dimethyl-4,5,6,7-tetrahydro-1H-imidazo[4,5-c]pyridine-2-carboxamido)-2-methylbiphenyl-3-yl)-7-cyanobenzo[d]oxazol-5-yl)methyl)-3-methylpyrrolidine-3-carboxylic acid]", "IC50": "≤ 10"}
{"compound": "Cc1c(-c2nc3cc(CN4CC[C@@](C)(C(=O)O)C4)cc(C#N)c3o2)cccc1-c1cccc(-c2nc3c(s2)CN(C(=O)CN(C)[C@@H](C)CO)C3)c1C", "note": "[Example 226, (R)-1-((7-cyano-2-(3′-(5-(2-(((S)-1-hydroxypropan-2-yl)(methyl)amino)acetyl)-5,6-dihydro-4H-pyrrolo[3,4-d]thiazol-2-yl)-2,2′-dimethylbiphenyl-3-yl)benzo[d]oxazol-5-yl)methyl)-3-methylpyrrolidine-3-carboxylic acid]", "IC50": "≤ 10"}
{"compound": "Cc1c(Nc2nccc3cc(CN4CC[C@H](O)C4)cnc23)cccc1-c1cccc(-c2nc3cc(CN4CCC[C@H]4C(=O)O)cc(C#N)c3o2)c1C", "note": "[Example 35, (S)-1-((7-cyano-2-(3′-(3-(((S)-3-hydroxypyrrolidin-1-yl)methyl)-1,7-naphthyridin-8-ylamino)-2,2′-dimethylbiphenyl-3-yl)benzo[d]oxazol-5-yl)methyl)pyrrolidine-2-carboxylic acid]", "IC50": "≤ 10"}
{"compound": "CCN(C)CC(=O)N1Cc2nc(-c3cccc(-c4cccc(-c5nc6cc(CN7CC8(C(=O)O)CC7C8)cc(C#N)c6o5)c4C)c3C)sc2C1", "note": "[Example 220, 2-((7-cyano-2-(3′-(5-(2-(ethyl(methyl)amino)acetyl)-5,6-dihydro-4H-pyrrolo[3,4-d]thiazol-2-yl)-2,2′-dimethylbiphenyl-3-yl)benzo[d]oxazol-5-yl)methyl)-2-azabicyclo[2.1.1]hexane-4-carboxylic acid]", "IC50": "≤ 10"}
{"compound": "Cc1c(-c2nc3cc(CN4CC[C@@H](C(=O)NCCO)C4)cc(C#N)c3o2)cccc1-c1cccc(-c2nc3c(s2)CN(C(C)C)CC3)c1C", "note": "[Example 119, (R)-1-((7-cyano-2-(3′-(5-isopropyl-4,5,6,7-tetrahydrothiazolo[5,4-c]pyridin-2-yl)-2,2′-dimethyl-[1,1′-biphenyl]-3-yl)benzo[d]oxazol-5-yl)methyl)-N-(2-hydroxyethyl)pyrrolidine-3-carboxamide]", "IC50": "≤ 10"}
{"compound": "Cc1c(Nc2nccc3cc(CNC[C@H](C)O)cnc23)cccc1-c1cccc(-c2nc3cc(CN4CCC(C(=O)O)CC4)cc(C#N)c3o2)c1C", "note": "[Example 204, (S)-1-((7-cyano-2-(3′-(3-((2-hydroxypropylamino)methyl)-1,7-naphthyridin-8-ylamino)-2,2′-dimethylbiphenyl-3-yl)benzo[d]oxazol-5-yl)methyl)piperidine-4-carboxylic acid]", "IC50": "≤ 10"}
{"compound": "Cc1c(Nc2nccc3cc(CN4CC[C@@H](C(=O)O)C4)cnc23)cccc1-c1cccc(-c2nc3cc(CN4CC[C@@H](O)C4)cc(C#N)c3o2)c1C", "note": "[Example 141, (R)-1-((8-(3′-(7-cyano-5-(((R)-3-hydroxypyrrolidin-1-yl)methyl)benzo[d]oxazol-2-yl)-2,2′-dimethylbiphenyl-3-ylamino)-1,7-naphthyridin-3-yl)methyl)pyrrolidine-3-carboxylic acid]", "IC50": "≤ 10"}
{"compound": "Cc1c(Nc2nccc3cc(CN4CC[C@H](O)C4)cnc23)cccc1-c1cccc(-c2nc3cc(CN4CC[C@H](C(=O)O)C4)cc(C#N)c3o2)c1C", "note": "[Example 25, (S)-1-((7-cyano-2-(3′-(3-(((S)-3-hydroxypyrrolidin-1-yl)methyl)-1,7-naphthyridin-8-ylamino)-2,2′-dimethylbiphenyl-3-yl)benzo[d]oxazol-5-yl)methyl)pyrrolidine-3-carboxylic acid]", "IC50": "≤ 10"}
{"compound": "Cc1c(-c2nc3cc(CN4CC[C@H](O)C4)cc(Cl)c3o2)cccc1-c1cccc(-c2nc3cc(CN4CC[C@H](C(=O)O)C4)cc(Cl)c3o2)c1C", "note": "[Example 10, (S)-1-((7-chloro-2-(3′-(7-chloro-5-(((S)-3-hydroxypyrrolidin-1-yl)methyl)benzo[d]oxazol-2-yl)-2,2′-dimethylbiphenyl-3-yl)benzo[d]oxazol-5-yl)methyl)pyrrolidine-3-carboxylic acid]", "IC50": "≤ 10"}
{"compound": "Cc1c(-c2nc3cc(CN4CC[C@@H](C(=O)O)C4)cc(C#N)c3o2)cccc1-c1cccc(-c2nc3c(s2)CN(C(=O)CN2CCC2)C3)c1C", "note": "[Example 113, (R)-1-((2-(3′-(5-(2-(azetidin-1-yl)acetyl)-5,6-dihydro-4H-pyrrolo[3,4-d]thiazol-2-yl)-2,2′-dimethylbiphenyl-3-yl)-7-cyanobenzo[d]oxazol-5-yl)methyl)pyrrolidine-3-carboxylic acid]", "IC50": "≤ 10"}
